This is an account of results in paper PMC11510214, “Novel Dual Acetyl- and Butyrylcholinesterase Inhibitors Based on the Pyridyl–Pyridazine Moiety for the Potential Treatment of Alzheimer’s Disease” (Pharmaceuticals, 2024).

Test [1] addresses butyrylcholinesterase (BuChE) (Homo sapiens, UniProt P06276). Kind of test: biochemical. The conditions noted are these: for IC50: IC50 against butyrylcholinesterase (BuChE), human enzyme, dose response 0.01 to 100 µM; for inhibition at 0.01 µM / inhibition at 0.1 µM / inhibition at 1 µM / inhibition at 10 µM / inhibition at 100 µM: read-out: % inhibition BuChE.
Experimental: (§1) Experimental procedures were followed as instructed by the kits’ manufacturer. The enzymes used in the assays were of human origin. IC50 values of the compounds were calculated from the obtained dose response curve, and selectivity index was calculated as a ratio between (AChE/BuChE) IC50.
For test [2], the target named is T1, acetylcholinesterase (AChE) (Homo sapiens, UniProt P22303). The conditions noted are these: for Selectivity Index (AChE/BuChE): ratio between (AChE/BuChE) IC50; for IC50 against acetylcholinesterase (AChE): human enzyme, dose response 0.01 to 100 µM.
Experimental: as §1
The target in test [3] is T1, acetylcholinesterase (AChE). Kind of test: biochemical. The conditions noted are these: for IC50: IC50 against acetylcholinesterase (AChE), human enzyme, dose response 0.01 to 100 µM; for inhibition at 0.01 µM / inhibition at 0.1 µM / inhibition at 1 µM / inhibition at 10 µM / inhibition at 100 µM: read-out: % inhibition AChE.
Experimental: as §1
The subject of test [4] is AChE. Details: method as in PMID 23466605, PMID 10052979, PMID 29775949, PMID 31675671. The conditions noted are these: Figure 1; ref [37],[30],[34],[38],[36]; read-out: AChE inhibition IC50; cited from earlier work.

Where “and” joins values, the source holds several entries; their conditions need not be identical. Equal values may be shown once.
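Wherever IC50 against acetylcholinesterase (AChE) is given: Kit-based enzyme assay using enzymes of human origin.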
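Wherever Selectivity Index (AChE/BuChE) is given: Kit-based enzyme assay using enzymes of human origin.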

T1 sequence (P22303 32-614): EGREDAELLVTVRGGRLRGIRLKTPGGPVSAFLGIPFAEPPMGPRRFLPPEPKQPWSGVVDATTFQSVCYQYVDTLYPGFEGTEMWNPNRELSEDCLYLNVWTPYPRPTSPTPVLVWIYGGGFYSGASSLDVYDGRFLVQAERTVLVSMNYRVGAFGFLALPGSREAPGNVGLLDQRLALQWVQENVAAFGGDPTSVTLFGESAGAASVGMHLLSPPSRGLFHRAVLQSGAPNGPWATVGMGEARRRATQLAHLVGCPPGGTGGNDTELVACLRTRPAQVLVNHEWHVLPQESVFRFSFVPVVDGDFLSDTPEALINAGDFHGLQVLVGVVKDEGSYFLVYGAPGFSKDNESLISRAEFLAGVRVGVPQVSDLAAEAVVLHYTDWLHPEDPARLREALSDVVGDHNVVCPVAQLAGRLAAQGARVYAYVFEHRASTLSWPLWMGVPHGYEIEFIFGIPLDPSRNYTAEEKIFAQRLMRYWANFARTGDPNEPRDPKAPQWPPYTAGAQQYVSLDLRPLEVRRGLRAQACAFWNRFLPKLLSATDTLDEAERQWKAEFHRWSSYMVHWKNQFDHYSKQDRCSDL
Sequence of butyrylcholinesterase (BuChE) (P06276 29-602): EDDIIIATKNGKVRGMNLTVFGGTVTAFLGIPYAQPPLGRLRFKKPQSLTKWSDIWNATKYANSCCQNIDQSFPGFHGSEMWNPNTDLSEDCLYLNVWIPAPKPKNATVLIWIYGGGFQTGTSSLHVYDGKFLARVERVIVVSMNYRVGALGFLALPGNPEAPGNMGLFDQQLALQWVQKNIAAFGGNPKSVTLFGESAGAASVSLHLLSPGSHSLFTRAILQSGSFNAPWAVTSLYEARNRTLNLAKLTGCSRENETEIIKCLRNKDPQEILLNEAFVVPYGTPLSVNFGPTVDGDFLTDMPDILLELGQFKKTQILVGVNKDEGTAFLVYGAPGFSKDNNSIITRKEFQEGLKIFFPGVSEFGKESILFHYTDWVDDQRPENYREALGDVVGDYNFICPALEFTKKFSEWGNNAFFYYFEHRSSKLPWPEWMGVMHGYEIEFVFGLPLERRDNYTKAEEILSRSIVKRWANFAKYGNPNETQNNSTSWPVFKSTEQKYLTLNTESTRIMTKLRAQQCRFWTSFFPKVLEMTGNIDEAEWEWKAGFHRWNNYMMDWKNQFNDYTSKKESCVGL

On to `CC(=O)OC1COC(n2cc(CSc3ccc(-c4ccccn4)nn3)nn2)C(OC(C)=O)C1OC(C)=O` (centres unmarked) [Compound 5], for which, in test [1], the IC50 is 0.189 µM and 0.18 µM; the inhibition at 0.01 µM is 25%; the inhibition at 0.1 µM came out at 48%; the inhibition at 1 µM came out at 67%. In addition, in test [1], the inhibition at 10 µM amounted to 78% and the inhibition at 100 µM came out at 91%. In addition, the “Selectivity Index (AChE/BuChE)” value in test [2] turned out to be 1.41. In test [3], the 50% inhibitory concentration (IC50) is 0.266 µM and 0.26 µM; the inhibition at 0.01 µM turned out to be 42%; the inhibition at 0.1 µM stood at 61%; the inhibition at 1 µM was determined as 71%. In addition, in test [3], the inhibition at 10 µM was determined as 83% and the inhibition at 100 µM was 94%.
Take `OCCOCCn1cc(CSc2ccc(-c3ccccn3)nn2)nn1` [Compound 9]: in test [1], the IC50 was 0.384 µM and 0.38 µM; the inhibition at 0.01 µM is 22%; the inhibition at 0.1 µM was found to be 37%; the inhibition at 1 µM stood at 56%. In addition, in test [1], the inhibition at 10 µM turned out to be 80% and the inhibition at 100 µM was 93%. For the same compound, the “Selectivity Index (AChE/BuChE)” value in test [2] worked out at 1.68. In test [3], the IC50 is 0.647 µM and 0.64 µM; the inhibition at 0.01 µM was 35%; the inhibition at 0.1 µM is 54%; the inhibition at 1 µM amounted to 70%. Besides, in test [3], the inhibition at 10 µM was determined as 82% and the inhibition at 100 µM was determined as 92%.
Take `CC(=O)OCC1OC(n2cc(CSc3ccc(-c4ccccn4)nn3)nn2)C(OC(C)=O)C(OC(C)=O)C1OC(C)=O` [Compound 3, (2R,3R,4S,5R,6R)-2-(Acetoxymethyl)-6-(4-(((6-(pyridin-2-yl)pyridazin-3-yl)thio)methyl)-1H-1,2,3-triazol-1-yl)tetrahydro-2H-pyran-3,4,5-triyltriacetate]: in test [1], the half-inhibitory concentration (IC50) was 0.297 µM and 0.29 µM; the inhibition at 0.01 µM turned out to be 25%; the inhibition at 0.1 µM was 39%; the inhibition at 1 µM is 61%. For the same compound, in test [1], the inhibition at 10 µM amounted to 79% and the inhibition at 100 µM is 93%. In test [2], the “IC50 against acetylcholinesterase (AChE)” value was “moderate inhibition” and the “Selectivity Index (AChE/BuChE)” value came out at 29.32. In test [3], the concentration for half-maximal inhibition (IC50) is 8.71 µM and 8.7 µM; the inhibition at 0.01 µM was found to be 7.4%; the inhibition at 0.1 µM came out at 23%; the inhibition at 1 µM came out at 43%. Besides, in test [3], the inhibition at 10 µM was 72% and the inhibition at 100 µM turned out to be 88%.
In the case of `OCCn1cc(CSc2ccc(-c3ccccn3)nn2)nn1` [Compound 10, 2-(4-(((6-(Pyridin-2-yl)pyridazin-3-yl)thio)methyl)-1H-1,2,3-triazol-1-yl)ethan-1-ol], in test [1], the IC50 was 6.06 ± 0.2 µM, the inhibition at 0.01 µM came out at 5.6%, the inhibition at 0.1 µM was 13% and the inhibition at 1 µM was 31%. In test [1], the inhibition at 10 µM is 51% and the inhibition at 100 µM was 78%. In test [2], the “Selectivity Index (AChE/BuChE)” value is 0.30. In addition, in test [3], 1.84 ± 0.07 µM corresponded to half-maximal inhibition (IC50), the inhibition at 0.01 µM worked out at 24%, the inhibition at 0.1 µM was determined as 40% and the inhibition at 1 µM was found to be 68%. For the same compound, in test [3], the inhibition at 10 µM was found to be 83% and the inhibition at 100 µM came to 90%.
For `NCCn1cc(CSc2ccc(-c3ccccn3)nn2)nn1` [Compound 11, 2-(4-(((6-(Pyridin-2-yl)pyridazin-3-yl)thio)methyl)-1H-1,2,3-triazol-1-yl)ethan-1-amine], in test [1], the IC50 worked out at 42.9 ± 1.52 µM, the inhibition at 0.01 µM is -8.1%, the inhibition at 0.1 µM was 7.5% and the inhibition at 1 µM is 12%. For the same compound, in test [1], the inhibition at 10 µM amounted to 33% and the inhibition at 100 µM amounted to 71%. The “Selectivity Index (AChE/BuChE)” value in test [2] is recorded as 0.34. In test [3], inhibition was half-maximal at 14.6 ± 0.61 µM (IC50), the inhibition at 0.01 µM came to 7.5%, the inhibition at 0.1 µM is 26% and the inhibition at 1 µM is 53%. Also, in test [3], the inhibition at 10 µM turned out to be 76% and the inhibition at 100 µM stood at 90%.
As to `CCN(C)C(=O)Oc1cccc([C@H](C)N(C)C)c1` [Rivastigmine, rivastigmine, reference compound], in test [1], the inhibition at 0.01 µM was determined as 0.7%, the inhibition at 0.1 µM stood at 3.2%, the inhibition at 1 µM turned out to be 7% and the inhibition at 10 µM stood at 38%. Moreover, the inhibition at 100 µM in test [1] was 80%.
As for `OC[C@H]1O[C@@H](n2cc(CSc3ccc(-c4ccccn4)nn3)nn2)[C@H](O)[C@@H](O)[C@@H]1O` [Compound 7, (2R,3S,4S,5R,6R)-2-(Hydroxymethyl)-6-(4-(((6-(pyridin-2-yl)pyridazin-3-yl)thio)methyl)-1H-1,2,3-triazol-1-yl)tetrahydro-2H-pyran-3,4,5-triol], in test [1], the IC50 worked out at 7.9 ± 0.26 µM, the inhibition at 0.01 µM amounted to 7.8%, the inhibition at 0.1 µM worked out at 13% and the inhibition at 1 µM was found to be 23%. Also, in test [1], the inhibition at 10 µM worked out at 48% and the inhibition at 100 µM turned out to be 79%. Besides, in test [2], the “IC50 against acetylcholinesterase (AChE)” value is “moderate inhibition” and the “Selectivity Index (AChE/BuChE)” value came out at 0.39. In test [3], it took 3.14 ± 0.13 µM to reach half-maximal inhibition (IC50), the inhibition at 0.01 µM was found to be 14%, the inhibition at 0.1 µM worked out at 38% and the inhibition at 1 µM amounted to 62%. In test [3], the inhibition at 10 µM stood at 80% and the inhibition at 100 µM was 92%.
For `CC(=O)OC[C@H]1O[C@@H](n2cc(CSc3ccc(-c4ccccn4)nn3)nn2)[C@H](OC(C)=O)[C@@H](OC(C)=O)[C@H]1OC(C)=O` [Compound 4, (2R,3S,4S,5R,6R)-2-(Acetoxymethyl)-6-(4-(((6-(pyridin-2-yl)pyridazin-3-yl)thio)methyl)-1H-1,2,3-triazol-1-yl)tetrahydro-2H-pyran-3,4,5-triyl triacetate], in test [1], the 50% inhibitory concentration (IC50) came out at 14.6 ± 0.48 µM, the inhibition at 0.01 µM was determined as 5.1%, the inhibition at 0.1 µM was 11% and the inhibition at 1 µM worked out at 20%. For the same compound, in test [1], the inhibition at 10 µM was determined as 41% and the inhibition at 100 µM is 75%. For the same compound, the “Selectivity Index (AChE/BuChE)” value in test [2] worked out at 0.81. In test [3], half-maximal inhibition (IC50) was put at 11.9 ± 0.5 µM, the inhibition at 0.01 µM was determined as 11%, the inhibition at 0.1 µM was 29% and the inhibition at 1 µM was found to be 47%. Besides, in test [3], the inhibition at 10 µM came out at 71% and the inhibition at 100 µM is 87%.
Regarding `Cc1ccc(-c2ccc(=O)n(CCc3n[nH]c(=S)n3-c3ccc(OC(F)(F)F)cc3)n2)cc1` [VII], the IC50 in test [4] was 0.049 µM.
As to `C#CCSc1ccc(-c2ccccn2)nn1` [Compound 1, 3-(Prop-2-yn-1-ylthio)-6-(pyridin-2-yl)pyridazine], in test [1], 4.37 ± 0.14 µM corresponded to half-maximal inhibition (IC50), the inhibition at 0.01 µM turned out to be 8.7%, the inhibition at 0.1 µM is 19% and the inhibition at 1 µM was found to be 27%. For the same compound, in test [1], the inhibition at 10 µM is 54% and the inhibition at 100 µM came out at 83%. In test [2], the “Selectivity Index (AChE/BuChE)” value was found to be 2.64. For the same compound, in test [3], the midpoint of inhibition, the IC50, lay at 11.5 ± 0.48 µM; the inhibition at 0.01 µM is 6.1%; the inhibition at 0.1 µM was 23%; the inhibition at 1 µM was found to be 51%. In test [3], the inhibition at 10 µM was 74% and the inhibition at 100 µM was 89%.
Consider `COc1ccc(-c2ccc(C(=O)NCCC3CCN(Cc4ccccc4)CC3)nn2)cc1` [V], for which the IC50 in test [4] is 0.11 µM.
With `COc1cc2c(cc1OC)C(=O)C(CC1CCN(Cc3ccccc3)CC1)C2` (centres unmarked) [Donepezil, donepezil, reference compound], in test [1], the inhibition at 0.01 µM was 16%, the inhibition at 0.1 µM is 32%, the inhibition at 1 µM was 65% and the inhibition at 10 µM turned out to be 84%. Also, the inhibition at 100 µM in test [1] amounted to 94%.
Consider `CC(=O)OCC1O[C@@H](n2cc(CNc3c4c(nc5ccccc35)CCCC4)nn2)C(OC(C)=O)C(OC(C)=O)C1OC(C)=O` (some centres unmarked) [VI], for which the half-maximal inhibitory concentration (IC50) in test [4] was 4.89 µM.
With `CC(=O)OC[C@H]1O[C@@H](n2cc(CSc3ccc(-c4ccccn4)nn3)nn2)[C@H](OC(C)=O)[C@@H]1OC(C)=O` [Compound 6, (2R,3R,4R,5R)-2-(Acetoxymethyl)-5-(4-(((6-(pyridin-2-yl)pyridazin-3-yl)thio)methyl)-1H-1,2,3-triazol-1-yl)tetrahydrofuran-3,4-diyl diacetate], in test [1], 32 ± 1.05 µM corresponded to half-maximal inhibition (IC50), the inhibition at 0.01 µM is 4%, the inhibition at 0.1 µM was determined as 8.1% and the inhibition at 1 µM was 19%. Besides, in test [1], the inhibition at 10 µM stood at 33% and the inhibition at 100 µM came to 69%. Moreover, in test [2], the “IC50 against acetylcholinesterase (AChE)” value is listed as “moderate inhibition” and the “Selectivity Index (AChE/BuChE)” value was found to be 0.29. In test [3], the half-inhibitory concentration (IC50) worked out at 9.15 µM, the inhibition at 0.01 µM worked out at 9%, the inhibition at 0.1 µM turned out to be 29% and the inhibition at 1 µM turned out to be 55%. Besides, in test [3], the inhibition at 10 µM came to 73% and the inhibition at 100 µM worked out at 88%.
Take `OC[C@H]1O[C@@H](n2cc(CSc3ccc(-c4ccccn4)nn3)nn2)[C@H](O)[C@@H]1O` [Compound 8, (2R,3S,4R,5R)-2-(Hydroxymethyl)-5-(4-(((6-(pyridin-2-yl)pyridazin-3-yl)thio)methyl)-1H-1,2,3-triazol-1-yl)tetrahydrofuran-3,4-diol]: in test [1], it took 5.35 ± 0.17 µM to reach half-maximal inhibition (IC50), the inhibition at 0.01 µM amounted to 5.9%, the inhibition at 0.1 µM worked out at 13% and the inhibition at 1 µM is 22%. In test [1], the inhibition at 10 µM amounted to 55% and the inhibition at 100 µM stood at 82%. In addition, the “Selectivity Index (AChE/BuChE)” value in test [2] came out at 0.12. In test [3], 0.64 ± 0.02 µM corresponded to half-maximal inhibition (IC50), the inhibition at 0.01 µM is 26%, the inhibition at 0.1 µM stood at 43% and the inhibition at 1 µM came to 62%. Also, in test [3], the inhibition at 10 µM stood at 88% and the inhibition at 100 µM was found to be 93%.

As usually defined, the IC50 is the midpoint of a concentration-inhibition curve. One may read the inhibition as the drop in the measured response relative to a control, in per cent.
